Assays:
Format in all cases: functional
[1] = test system: Staphylococcus epidermidis; test: Antibacterial activity against Staphylococcus epidermidis ATCC 12228 at 10 ug/disk after 24 hr by disk diffusion method; conditions: ATCC 12228, 24 h, read-out: DIZ
Nocardia = test: Antibacterial activity against Nocardia canis at 10 ug/disk after 24 hr by disk diffusion method; conditions: read-out: DIZ
Pseudomonas aeruginosa = test: Antibacterial activity against Pseudomonas aeruginosa ATCC 27853 at 10 ug/disk after 24 hr by disk-diffusion method; conditions: ATCC 27853, 24 h, read-out: DIZ
Escherichia coli = test: Antibacterial activity against Escherichia coli ATCC 25922 at 10 ug/disk after 24 hr by disk-diffusion method; conditions: ATCC 25922, 24 h, read-out: DIZ
Staphylococcus aureus = test: Antibacterial activity against Staphylococcus aureus ATCC 25923 at 10 ug/disc after 24 hr by disk diffusion method; conditions: ATCC 25923, 24 h, read-out: DIZ
Proteus vulgaris = test: Antibacterial activity against Proteus vulgaris NRRL-B-123 at 10 ug/disk after 24 hr by disk diffusion method; conditions: NRRL-B-123, 24 h, read-out: DIZ
Bacillus cereus = test: Antibacterial activity against Bacillus cereus NRRL 3711 at 10 ug/disk after 24 hr by disk diffusion method; conditions: NRRL 3711, 24 h, read-out: DIZ

SMILES: CN(C)[C@@H]1C(O)=C(C(N)=O)C(=O)[C@@]2(O)C(O)=C3C(=O)c4c(O)cccc4[C@@](C)(O)[C@H]3C[C@@H]12 [TETRACYCLINE]
- zone of inhibition at 10 µg/disc [1]: 15 mm
- zone of inhibition at 10 µg/disc (Nocardia): 14 mm
- zone of inhibition at 10 µg/disc (Pseudomonas aeruginosa): 13 mm
- zone of inhibition at 10 µg/disc (Escherichia coli): 25 mm
- zone of inhibition at 10 µg/disc (Staphylococcus aureus): 40 mm
- zone of inhibition at 10 µg/disc (Proteus vulgaris): 15 mm
- zone of inhibition at 10 µg/disc (Bacillus cereus): 28 mm

Source: ChEMBL document CHEMBL3044875, “Synthesis and antimicrobial activity of some bisoctahydroxanthene-1,8-dione derivatives” (2011)
